Among the data in ChEMBL document CHEMBL4177747, “1,5-Disubstituted 1,2,3-triazole linked disaccharides: Metal-free syntheses and screening of a new class of ribonuclease A inhibitors” (Bioorg Med Chem, 2018) are Ki and inhibition values, retold here.

Assay [1] can be described thus: Inhibition of RNase A (unknown origin) using varying levels of 2',3'-cCMP as substrate by Lineweaver-burk plot analysis. Details: species or system Homo sapiens.
Assay [2] is filed under the species Homo sapiens. The assay can be described thus: Inhibition of RNase A (unknown origin) assessed as reduction in tRNA substrate degradation at 0.1 to 0.2 mM pretreated for 3 hrs followed by substrate addition measured after 30 mins by ethidium bromide staining based agarose gel electrophoresis.
The species entered for assay [3] is Homo sapiens. Briefly: Inhibition of RNase A (unknown origin) assessed as reduction in tRNA substrate degradation at 0.25 to 0.3 mM pretreated for 3 hrs followed by substrate addition measured after 30 mins by ethidium bromide staining based agarose gel electrophoresis.
The species named for assay [4] is Homo sapiens. Briefly: Inhibition of RNase A (unknown origin) assessed as reduction in tRNA substrate degradation at 0.1 to 0.15 mM pretreated for 3 hrs followed by substrate addition measured after 30 mins by ethidium bromide staining based agarose gel electrophoresis.
Assay [5] is filed under the species Homo sapiens. Briefly: Inhibition of RNase A (unknown origin) assessed as reduction in tRNA substrate degradation at 0.35 to 0.5 mM pretreated for 3 hrs followed by substrate addition measured after 30 mins by ethidium bromide staining based agarose gel electrophoresis.
Assay [6] is filed under the species Homo sapiens. The assay can be described thus: Inhibition of RNase A (unknown origin) assessed as reduction in tRNA substrate degradation at 0.6 to 1 mM pretreated for 3 hrs followed by substrate addition measured after 30 mins by ethidium bromide staining based agarose gel electrophoresis.

The source made the active and inactive calls. The calls are words filed in the database; no cut-off is given here.

The molecule `Cc1cn([C@@H]2O[C@H](C(=O)N[C@H](CC(=O)O)C(=O)N[C@H]3C[C@H](n4cc(C)c(=O)[nH]c4=O)O[C@@H]3CO)[C@@H](O)[C@H]2O)c(=O)[nH]c1=O` had a Ki in assay [1] of 66 µM.
With `CC1(C)O[C@H]2O[C@H](Cn3nncc3[C@H]3O[C@@H]4OC(C)(C)O[C@@H]4[C@H]3OCc3ccccc3)[C@H](O)[C@H]2O1`, the inhibition result in the assay listed under Homo sapiens [2], in the assay filed under Homo sapiens [3], in the assay listed under Homo sapiens [4], in the assay filed under Homo sapiens [5] and in the assay filed under Homo sapiens [6] was “Active” each time. The molecule further displayed a Ki in assay [1] of 563 µM.

For orientation: Ki means a dissociation constant, usually derived from enzyme kinetics or from competition with a known ligand. Higher therefore signals a looser hold on the target.
